# Assay results published in US12090204B2, “Photodynamic therapy compositions and methods of use thereof” (Pinnacle Biologics, Inc., priority 2020, dated 2024).
# Values joined by “and” are separate entries in the source; they are usually repeats but may differ in a detail not shown here. Equal values may be shown once.
# Key:
# [1] = system: Prevotella (−); test: porfimer sodium aPDT, planktonic culture; type: cell-based; settings: 630 nm, kill at 75 J/cm2 (light dose 50-100 J/cm2), porfimer sodium 150 μg/mL
# Protocol: (§1) Bacteria were routinely cultured using tryptic soy broth or agar at 37° C. in a 5% CO2 incubator. Bacteria were isolated and suspended with 0.9% NaCl to an Optical Density (OD) of 0.1 taken at 630 nm, to generate the inoculum used for either planktonic or biofilm assays.
# (§2) Experiments using planktonic cultures were carried out using M. catarrhalis, as a standard for further comparisons and to determine the effective drug concentration, porfimer sodium incubation time and light dose parameters which would provide an effective cell kill at the level of 5-7 logs. Once determined the experiments were repeated for all other bacterial strains examined.
# (§3) The colony forming units (CFU) per mL of the starting inoculum for every experiment was determined by dilution plating. […]
# (§4) Bacteria were exposed to 630 nm laser light via a fiber optic with a lens affixed to the distal end to provide a uniform diverging light field. […] Power output of the laser was measured using a UDT/Gamma Scientific 371 optical power meter and an integrating sphere. […]
# (§5) Biofilms were formed on glass coupons in culture dishes containing a bacterial inoculum for 48 hours under conditions specific to the strain. […] Power output of the laser was measured using a UDT/Gamma Scientific 371 optical power meter and an integrating sphere. […]
# [2] = system: S. aureus (+); test: porfimer sodium aPDT, planktonic culture; type: cell-based, Staphylococcus aureus; settings: 630 nm, 200 J/cm2, porfimer sodium 125 μg/mL
# Protocol: as §1, §2, §3, §4, §5
# [3] = system: S. enterica (−); test: porfimer sodium aPDT, planktonic culture; type: cell-based, Salmonella enterica; settings: 630 nm, 200 J/cm2, porfimer sodium 125 μg/mL
# Protocol: as §1, §2, §3, §4, §5
# [4] = system: E. coli (−); test: porfimer sodium aPDT, planktonic culture; type: cell-based, Escherichia coli; settings: 630 nm, 200 J/cm2, porfimer sodium 125 μg/mL
# Protocol: as §1, §2, §3, §4, §5
# [5] = system: P. anaerobius (+); test: porfimer sodium aPDT, 48 hour biofilm culture; type: cell-based, Peptostreptococcus anaerobius; settings: 630 nm, kill at 100 J/cm2 (light dose 75-100 J/cm2), porfimer sodium 250 μg/mL
# Protocol: as §1
# (§6) The colony forming units (CFU) per mL of the starting inoculum for every experiment was determined by dilution plating. Control samples were exposed to laser at 630 nm in the absence of porfimer sodium, porfimer sodium in the absence of laser exposure, or in saline alone in the absence of porfimer sodium and 630 nm laser light. All experimental samples were dilution plated to enumerate viable CFU's. Three independent replicates were performed for each reaction condition per strain per assay. […]
# as §4, §5
# [6] = system: P. gingivalis (−); test: porfimer sodium aPDT, 48 hour biofilm culture; type: cell-based, Porphyromonas gingivalis; settings: 630 nm, kill at 100 J/cm2 (light dose 75-100 J/cm2), porfimer sodium 250 μg/mL
# Protocol: as §1, §6, §4, §5
# [7] = system: methicillin-resistant Staphylococcus aureus (MRSA), Staphylococcus aureus ATCC BAA 1768; test: partial thickness wound model, microbial load in tissue biopsy (Example 4); type: in vivo, Yorkshire pig; settings: for TISSUE BIOPSY (CFU/mm^2) 24 hr. after treatment 2: individual wounds
# Protocol: Bacteria strains were obtained from ATCC (Manassas, VA). Bacteria were propagated from glycerol stock store at −80° C. A stab of the glycerol stock was used to inoculate 5 mL of trypticase soy broth. The cultures were incubated overnight at 37° C. with shaking at 250 rpm. The following day, a portion of overnight culture was used to prepare a streak plate onto an Oxacillin screen plate which was incubated overnight at 37° C. and single colony isolates of freshly plated bacteria were used to prepare bacterial inoculum. The morning of wounding an infection, a portion of overnight culture was used to inoculate 50 mL of trypticase soy broth and the newly inoculated media was incubated at 37° C. with shaking at 250 rpm until log phase growth was reached. The bacteria were pelleted by centrifugation at 4,000 rpm at 4° C. for 10 minutes in a Sorval tabletop centrifuge. The culture supernatant was discarded, and the bacterial pellets were suspended in a volume of sterile PBS to yield a concentration of 2×10^7 CFU/mL.
# Tissue samples were obtained using an 8 mm biopsy punch. The biopsy punch was placed into a homogenization tube containing 1 mL of sterile PBS and stainless steel homogenization beads and the tissues were homogenized in a Reich MM300 mixer mill homogenizer. Serial 10-fold dilutions of the tissue homogenates were prepared in sterile PBS and 100 microliters of select dilutions for each wound were plated onto agar plates. The plates were incubated at 35-37° C. and the colonies were enumerated manually. Microbial loads were normalized at CFU/mm^2 of tissue surface area per punch.
# This study evaluated the ability of porfimer sodium to reduce/eliminate microbial colonization and biofilm from surgical sites in a partial thickness would healing model. The study was conducted in a single female Yorkshire pig over the course of five days. A dermatome was used to create 20 partial thickness wounds. Sixteen of the wounds were infected with methicillin-resistant Staphylococcus aureus (MRSA), and four were designated as uninfected controls. The wounds were bandaged and the bacterial biofilm allowed to develop for 48 hours.
# Designated infected wounds were subjected to two courses of treatment with the test article at a periodicity of 24 hours. […]
# Treatments consisted of application of the test article followed by photoactivation with one or two intensities of light, 150 J/cm^2 or 200 J/cm^2 (Table 3). Wounds were evaluated for microbial load prior to each course of treatment, immediately following the final treatment and 24 hours following the final treatment. […]
substance,measurement,setting,value
porfimer sodium,Rate of kill,[1],7Log
same,Rate of kill,[2],>7Log
same,Rate of kill,[3],6Log
same,Rate of kill,[4],<1Log
same,Rate of kill,[5],>6Log
same,Rate of kill,[6],7Log
same,"Mean microbial load, Tissue","[7]; Group 3 (150 J/cm^2), N 6",8.13E+03 CFU/mm^2
same,TISSUE BIOPSY (CFU/mm^2) 24 hr. after treatment 2,[7]; Group 3 = 150 J/cm2 treatment,4.28E+03 CFU/mm^2 and 1.57E+04 CFU/mm^2 and 2.78E+03 CFU/mm^2 and 4.73E+03 CFU/mm^2 and 1.05E+04 CFU/mm^2
same,"Mean microbial load, Tissue","[7]; Group 4 (200 J/cm^2), N 3, without wounds L6, R5, R9",2.64E+03 CFU/mm^2
same,TISSUE BIOPSY (CFU/mm^2) 24 hr. after treatment 2,[7]; Group 4 = 200 J/cm2 treatment,6.27E+03 CFU/mm^2 and 5.47E+02 CFU/mm^2 and 1.11E+03 CFU/mm^2 and 8.35E+03 CFU/mm^2 and 3.36E+03 CFU/mm^2
